Measurements taken from ChEMBL document CHEMBL1127716, “-Ketothiazole inhibitors of prolyl endopeptidase” (Bioorg Med Chem Lett, 1994).
pIC50: −log10 of the molar value.

Biological target: Prolyl endopeptidase (Sus scrofa, UniProt P23687)
Assay: Compound was evaluated for the inhibition of Prolyl endopeptidase (PEP) from pig kidney using Z-Gly-Pro-p-nitroanilide as substrate

Chain of Prolyl endopeptidase (P23687 whole entry): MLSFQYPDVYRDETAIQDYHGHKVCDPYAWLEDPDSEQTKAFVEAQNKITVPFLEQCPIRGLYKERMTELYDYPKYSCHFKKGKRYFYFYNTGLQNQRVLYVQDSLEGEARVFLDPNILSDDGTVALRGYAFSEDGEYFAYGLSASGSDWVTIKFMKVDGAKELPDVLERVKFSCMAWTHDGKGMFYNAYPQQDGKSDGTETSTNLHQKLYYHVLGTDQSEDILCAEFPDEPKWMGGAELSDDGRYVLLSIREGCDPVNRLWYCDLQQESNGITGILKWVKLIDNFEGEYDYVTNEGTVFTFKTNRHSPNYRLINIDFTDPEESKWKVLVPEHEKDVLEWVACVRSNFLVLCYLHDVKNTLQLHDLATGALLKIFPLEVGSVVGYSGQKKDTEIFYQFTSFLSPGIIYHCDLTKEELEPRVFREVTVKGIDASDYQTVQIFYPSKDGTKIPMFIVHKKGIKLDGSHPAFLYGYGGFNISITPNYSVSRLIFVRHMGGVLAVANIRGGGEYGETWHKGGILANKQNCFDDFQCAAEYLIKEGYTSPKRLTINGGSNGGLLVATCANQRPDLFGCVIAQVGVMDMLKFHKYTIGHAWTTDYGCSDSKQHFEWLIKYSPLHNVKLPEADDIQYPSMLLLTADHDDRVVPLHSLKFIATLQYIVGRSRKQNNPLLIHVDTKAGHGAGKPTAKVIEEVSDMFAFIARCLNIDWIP

## O=C(c1cscn1)[C@@H]1CCCN1C(=O)[C@@H]1CCCN1C(=O)CCCc1ccccc1
  pIC50: 8.23

## CCOC(=O)C(=O)[C@@H]1CCCN1C(=O)[C@@H]1CCCN1C(=O)CCCc1ccccc1
  pIC50: 8.02
